We go through 27 compounds from ChEMBL document CHEMBL1201862, “PubChem BioAssay data set” (2004).

Holding throughout (assay): growth of human tumour cells (NCI), 48 h
Assay [1] deals with DMS-273.
Assay [2] relates to SNB-78.
Assay [3] relates to HOP-18.
Assay [4] deals with KM-20L2.
Assay [5] has as its system XF498.
Assay [6] deals with M19-MEL.
The test system of assay [7] is DMS-114.
In assay [8] the test system is DLD-1.
In assay [9] the test system is RXF 631.

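Grown in 96-well plates, cells were treated for 48 hours with each compound at five concentrations. Insufficient inhibition: endpoint recorded as highest concentration tested. At the GI50, growth is halved.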 Active and inactive are the calls of the source. No stated cut-off is given here; in the data, active = GI50 up to about 1.1 µM and inactive = higher.

On to `COc1nc(NC2OC(COC(C)=O)C(OC(C)=O)C(OC(C)=O)C2OC(C)=O)c(/N=C(\C)C(C)=O)c(=O)n1C` (stereo not given), for which the GI50 in assay [1] is > 10 µM (inactive); in [2], > 100 µM (inactive); in assay [3], > 100 µM (inactive); in [4], > 100 µM (inactive); in assay [5], > 100 µM (inactive); in assay [6] it was > 100 µM (inactive). The GI50 in assay [7] and in assay [8] was > 100 µM (inactive) each time.
As for `Oc1cccc(-c2cc(O)c3cc4c(cc3n2)OCO4)c1`, the GI50 in assay [1] is 1.09 µM (active); in assay [2], 1.03 µM (active); in assay [3] it was > 100 µM (inactive); in assay [5], 7.26 µM (inactive); in [6] it was 1.49 µM (inactive); in [7], 0.721 µM (active). The GI50 in assay [8] is 3.43 µM (inactive).
Take `O=c1[nH]c(=O)n(C2CC(O)C(CO)O2)cc1/C=C/Br` (stereo not given): the GI50 in assay [1], in [2], in [9], in assay [4], in assay [5] and in assay [6] was > 100 µM (inactive) each time. The GI50 in assay [7] and in assay [8] was > 100 µM (inactive) in each case.
On to `O=C(c1c(O)cc(O)cc1O)C1Cc2ccccc21` (stereo not given), for which the GI50 in assay [1] was 48.2 µM (inactive); in assay [2], 58.7 µM (inactive); in assay [3], 3.18 µM (inactive); in assay [4], > 100 µM (inactive); in [6], > 100 µM (inactive); in assay [7] it was > 100 µM (inactive). Besides, the GI50 in [8] is > 100 µM (inactive).
With `CNCCCCN(C)/[N+]([O-])=N\O`, the GI50 in assay [1], in assay [2], in assay [9], in assay [3], in assay [4] and in assay [6] was > 100 µM (inactive) each time. For the same compound, the GI50 in assay [7] and in assay [8] was > 100 µM (inactive) throughout.
For the compound `O=C1CCC2(c3ccc(Cl)cc3)Nc3ncccc3N12` (stereo not given), the GI50 was 63 µM (inactive) in [2]; > 100 µM (inactive) in [4]; > 100 µM (inactive) in assay [5]; > 100 µM (inactive) in assay [6]; > 100 µM (inactive) in assay [7]; > 100 µM (inactive) in assay [8].
As to `CC1=CC=NN2C(=O)[C@H](C)C2C1` (stereo not given in full), the GI50 in assay [1], in assay [2], in assay [9], in assay [3], in [4] and in assay [5] was > 100 µM (inactive) in each case. Further, the GI50 in [6], in [7] and in assay [8] was > 100 µM (inactive) in each case.
For the compound `CCOC(=O)C1C(=S)NC(=O)C1C#N` (stereo not given), the GI50 in assay [1], in [9], in [3], in assay [4], in assay [6] and in [7] was > 100 µM (inactive) in each case. Moreover, the GI50 in assay [8] is > 100 µM (inactive).
Turning to `O=c1cc2ccccc2nn1Cc1cccc(Cl)c1`, the GI50 in assay [1] is 85.9 µM (inactive); in [2] it was > 100 µM (inactive); in assay [9], > 100 µM (inactive); in assay [3], > 100 µM (inactive); in assay [4] it was > 100 µM (inactive); in assay [5], 18.8 µM (inactive). In addition, the GI50 in assay [6] is > 100 µM (inactive); in assay [7] it was 66.4 µM (inactive); in assay [8] it was > 100 µM (inactive).
In the case of `CC(=O)N1CCC2(c3ccccc3N(C(C)=O)C2c2ccc(O)cc2)C1C(=O)O` (stereo not given), the GI50 in assay [1], in assay [2], in assay [3], in assay [4], in assay [5] and in [6] was > 100 µM (inactive) in each case. Moreover, the GI50 in assay [7] and in assay [8] was > 100 µM (inactive) throughout.
Take `CC(SC(=O)Nc1ccc(/N=N/c2ccccc2)cc1)C(=O)O` (stereo not given): the GI50 is 48.6 µM (inactive) in assay [1], > 100 µM (inactive) in assay [2], > 100 µM (inactive) in assay [4] and > 100 µM (inactive) in assay [7].
Consider `CC(C)(C)OC1=C(OC(C)(C)C)C(O)(c2ccccc2)C1=O` (stereo not given), for which the GI50 in assay [1], in assay [2], in assay [9], in assay [3], in assay [6] and in assay [7] was > 100 µM (inactive) in each case. Besides, in [8], the GI50 was > 100 µM (inactive).
On to `Cc1c2cc[n+](C)cc2c(C)c2c1[nH]c1ccc(OCC(F)(F)F)cc12`, for which the GI50 in [1] is 1.25 µM (inactive); in assay [2] it was 0.622 µM (active); in assay [3], 1.96 µM (inactive); in assay [4], 3.15 µM (inactive); in [6], 2.14 µM (inactive); in assay [7], 1.42 µM (inactive). The GI50 in [8] was 1.4 µM (inactive).
Regarding `O=C(Cc1nc2ccccc2s1)Nc1ccc(Cl)cc1`, the GI50 is 84.7 µM (inactive) in assay [1]; > 100 µM (inactive) in assay [2]; 50.6 µM (inactive) in [4]; > 100 µM (inactive) in assay [5]; > 100 µM (inactive) in assay [6]; 91.6 µM (inactive) in [8].
Consider `Fc1ccccc1C1SCc2nc3ccccc3n21` (stereo not given), for which the GI50 in assay [1] is 31.3 µM (inactive); in assay [2] it was > 100 µM (inactive); in assay [9], 31.3 µM (inactive); in assay [6], 51.9 µM (inactive); in assay [7], 24.4 µM (inactive); in assay [8], 53.7 µM (inactive).
Regarding `C/C(=N\NC(N)=S)c1ccc2c(c1)OCO2`, the GI50 in assay [2], in assay [9], in assay [3], in assay [4], in assay [5] and in [6] was > 100 µM (inactive) in each case. Further, the GI50 in [7] is 94.8 µM (inactive); in [8] it was 61.9 µM (inactive).
`CC(=O)OC1(C#N)CC2OC1C1C2N1C(=O)OC(C)(C)C` (stereo not given): the GI50 in [2], in assay [4], in [5], in assay [6], in assay [7] and in assay [8] was > 100 µM (inactive) each time.
Regarding `N#CC1CC2(CCN1C(=O)c1ccccc1)OCCO2` (stereo not given), the GI50 in assay [1], in assay [2], in [3], in [4], in assay [5] and in assay [6] was > 100 µM (inactive) throughout. The GI50 in assay [7] and in assay [8] was > 100 µM (inactive) in each case.
Turning to `N#COc1ccc(Oc2ccccc2)cc1`, the GI50 was 22.5 µM (inactive) in assay [1]; 36.8 µM (inactive) in assay [2]; > 100 µM (inactive) in assay [3]; > 100 µM (inactive) in assay [4]; 97.3 µM (inactive) in assay [5]; > 100 µM (inactive) in [6]. Besides, the GI50 is 31.1 µM (inactive) in assay [7] and > 100 µM (inactive) in assay [8].
With `CC(C)(c1cn(Cc2ccccc2)c2ccccc12)c1cn(Cc2ccccc2)c2ccccc12`, the GI50 was > 100 µM (inactive) in assay [2], > 100 µM (inactive) in assay [6], > 100 µM (inactive) in [7] and 91.2 µM (inactive) in assay [8].
For `Nc1ncnc2sc(Nc3ccccc3)nc12`, the GI50 in assay [1] was > 100 µM (inactive); in assay [2], > 100 µM (inactive); in assay [9], 9.86 µM (inactive); in assay [4], 43.8 µM (inactive); in assay [5], > 100 µM (inactive); in assay [6] it was > 100 µM (inactive). Besides, the GI50 in assay [8] was > 100 µM (inactive).
Take `O=C(Nc1c(O)[nH]c(=S)[nH]c1=O)c1ccccn1`: the GI50 in assay [2], in [9], in assay [3], in [4], in assay [6] and in assay [7] was > 100 µM (inactive) throughout. Moreover, the GI50 in [8] was > 100 µM (inactive).
For the compound `C[N+](C)(C)CCC(=O)N1C/C(=C\c2ccccc2)C(=O)/C(=C/c2ccccc2)C1`, the GI50 in assay [1] is 2.19 µM (inactive); in [2], 6.65 µM (inactive); in assay [3] it was 12.2 µM (inactive); in assay [4], 8 µM (inactive); in [5], 14.5 µM (inactive); in [6], 4.81 µM (inactive). For the same compound, the GI50 in assay [7] was 5.98 µM (inactive); in [8], 2.2 µM (inactive).
In the case of `CN(C)c1ccc(/C=c2/sc3nc(=O)c(-c4ccccc4NC(=O)C(F)(F)F)nn3c2=O)cc1`, the GI50 in [1] is > 100 µM (inactive); in assay [2], > 100 µM (inactive); in assay [5], > 100 µM (inactive); in assay [6], > 100 µM (inactive); in assay [7] it was 20.6 µM (inactive); in [8] it was > 100 µM (inactive).
For `COc1ccc(-c2cc(=O)c3ccc(O)cc3o2)c(OC)c1OC`, the GI50 was 43 µM (inactive) in [4]; 65.5 µM (inactive) in assay [5]; 74.3 µM (inactive) in assay [6]; 33.2 µM (inactive) in assay [7]; 93.1 µM (inactive) in [8].
Regarding `CCCCCCCCCCCC(=O)C1=C(O)CC(O)CC1=O` (stereo not given), the GI50 in assay [1] is 84.3 µM (inactive); in assay [2] it was > 100 µM (inactive); in [9] it was > 100 µM (inactive); in assay [3], > 100 µM (inactive); in assay [4] it was > 100 µM (inactive); in assay [5] it was > 100 µM (inactive). Besides, the figures for the GI50 in [6] and in [7] were > 100 µM (inactive) and 64.3 µM (inactive), respectively.
Regarding `CSc1c(C)c(C)nn1-c1ccccc1`, the GI50 is > 100 µM (inactive) in [1]; > 100 µM (inactive) in [2]; > 100 µM (inactive) in [9]; < 0.01 µM (active) in assay [3]; > 100 µM (inactive) in assay [4]; 59.8 µM (inactive) in assay [5]. For the same compound, the GI50 in [7] and in assay [8] was > 100 µM (inactive) each time.
